Data reported in the METLIN SMRT retention time set (Domingo-Almenara et al. 2019).

Experiment: gradient 5% acetonitrile 3 min, to 50% in 2 min, to 85% in 15 min, held 3 min, 100 µL/min
Details: column: Zorbax Extend-C18 2.1 x 50 mm; eluents: water / acetonitrile, 0.1% formic acid
In short: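 The system's dead and dwell volumes were 40 μL and 900 μL, with a Zorbax Extend-C18 column (2.1 × 50 mm, 1.8 μm) run at 100 μL/min in water and acetonitrile containing 0.1% formic acid each. Pure standards were analyzed in mixtures of ~100 molecules by HPLC–quadrupole time-of-flight mass spectrometry in positive and negative ionization mode. Retention time was assigned from computationally picked, manually inspected adduct peaks.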

SMILES | RP-LC retention time [s]
Cc1ccc(C(=O)NCc2nc(-c3ccc(-c4csc(C5CC5)n4)cc3)no2)cc1 | 1110
CCCCC(=O)N1CCCN(C2=NS(=O)(=O)C(c3ccc(C)c(C)c3)=C2C)CC1 | 886
CC(C)(Oc1ccc(Cl)cc1)C(=O)NCc1nnnn1C1CCCCC1 | 945
CSc1ccc(-c2nc3ccc(Cl)cn3c2Nc2ccc(Cl)cc2)cc1 | 993
CCN(CC)C(=O)c1ccc2c(c1)N(CC(=O)NC1CCCC1)C(=O)C1CCCCN21 (stereo unspecified) | 789
Cc1cc(C)n(CCC(=O)NCc2cccnc2Oc2ccccc2)n1 | 706
CCC(=O)Nc1ccc(CCc2nc3ccc(C(=O)NCc4ccco4)cc3[nH]2)cc1 | 597
Cc1cc(Cl)ccc1S(=O)(=O)NC1CCc2nn(C)c(=O)n2CC1 (stereo unspecified) | 708
COc1cc(-c2noc(CN3C(=O)COc4ccc(C)cc43)n2)cc(OC)c1OC | 985
O=C(C1CCN(S(=O)(=O)c2cc(-c3noc(C4CCC4)n3)cs2)CC1)N1CCc2ccccc21 | 1150
O=C(CN1CCN(C(=O)Nc2ccc(Cl)cc2)CC1=O)N1CCN(C2CCCCC2)CC1 | 624
CCC(C)NC(=O)c1cc(COc2ccc(NC(=O)C(C)C)cc2)on1 (stereo unspecified) | 776
CCS(=O)(=O)N1CC(=O)N(c2cccc(Cl)c2C)C(C)(C(=O)NCc2ccccc2)C1 (stereo unspecified) | 906
COc1ccc(C2(C(=O)N3CCC(n4c(C)cnc4C4CCC4)CC3)CC2)cc1 | 662
CC(=O)Nc1ccc(S(=O)(=O)N2CCC(CC(=O)N3CCN(c4ccccn4)CC3)CC2)cc1 | 581
O=C(NCCN1CCOCC1)C1CCc2sc(C(=O)N3CCOCC3)cc2C1 (stereo unspecified) | 561
N#Cc1ccc(S(=O)(=O)N2CC(c3nc(CCOCC4CCOCC4)no3)C2)cc1 | 813
O=C1CC(c2nc(-c3ccc(Cl)cc3)no2)CN1c1ccc2c(c1)OCCO2 (stereo unspecified) | 1040
Cc1ccc(S(=O)(=O)NC2CCN(C(=O)Cc3c[nH]c4ccccc34)CC2)cc1 | 775
CCC1Oc2ccc(S(=O)(=O)N3CCC(C(=O)Nc4cccc(F)c4)CC3)cc2NC1=O (stereo unspecified) | 910
CCOC(=O)c1sc(NC(=O)Cn2nc3c(cc2=O)CCCCC3)nc1C | 853
CCCCn1c(CN(C)C(=O)c2ccco2)nc2ccccc21 | 648

SMILES | RP-LC retention time [s]
Cn1cc(-c2cnn3c(N)c(Br)c(C4CCCNC4)nc23)cn1 (stereo unspecified) | 613
CNS(=O)(=O)c1cc(C(=O)Nc2cc(C)on2)oc1C | 643
COC(=O)c1ccccc1NC(=O)CN1CCC(c2nc(-c3cccc(F)c3)no2)CC1 | 738
CCC(C)n1c(=O)c2ccccc2n(Cc2nc(-c3ccccc3Cl)no2)c1=O (stereo unspecified) | 1170
O=[N+]([O-])c1cc(F)c2cccnc2c1O | 773
O=c1c2cc(-c3ccc4c(c3)OCO4)nn2ccn1Cc1nc(-c2cccc(Cl)c2)no1 | 1080
O=C(Nc1ncnc2sccc12)c1ccc([N+](=O)[O-])o1 | 664
O=C(NC1CCN(Cc2ccccc2)CC1)C1CCCN(c2ncc(-c3ccc(F)cc3)cn2)C1 (stereo unspecified) | 744
COc1ccc(S(=O)(=O)N2C[C@@H](F)C[C@H]2C(=O)N2CCOCC2)cc1 | 669
C=CCNC(=O)[C@@H]1[C@H](c2cc(OC)c(OC)c(OC)c2)c2cc3c(cc2[C@H](O)[C@H]1CO)OCO3 | 649
Cc1ccc(NC(=O)CSc2ccc(N3CCCC(C(=O)NC4CC4)C3)nn2)c(C)c1 (stereo unspecified) | 625
CCC(C)NC(=O)CCn1c(=O)c2ccccc2n2c(=O)n(Cc3cccc(F)c3)nc12 (stereo unspecified) | 816
CCNc1cc(N2CCCC(CCC(=O)NCCN3CCCCCC3)C2)ncn1 (stereo unspecified) | 550
CCOC(=O)c1c(NCc2ccccc2Cl)c2cccc(Cl)c2[nH]c1=O | 867
CCn1cc(S(=O)(=O)NC2CCCC2)c2cccnc21 | 808
O=C(NCc1cccs1)C(=O)NCC1(c2ccc(F)cc2)CC1 | 727
Cc1ncsc1C1N(C2CCN(C(=O)c3ccoc3)CC2)C(=O)C12CCCC2 (stereo unspecified) | 719
CCn1cc(S(=O)(=O)N2C[C@@H](COC)[C@H](c3ccccn3)C2)cn1 | 625
CSc1ncc2[nH]c(C(O)c3ccccc3)nc2n1 (stereo unspecified) | 692
CN1C(=O)CSc2ccc(NC(=O)N3CCN(c4ccccn4)CC3)cc21 | 579
CN1C2CC(OC(=O)C(CO)c3ccccc3)CC1C1OC12 (stereo unspecified) | 640
CCN1C(=O)C2(CCN(C(=O)C3CC3)CC2)c2ccccc21 | 779

SMILES | RP-LC retention time [s]
Nc1sc(SCC(=O)Nc2ccc3c(c2)OCO3)nc1-c1ccccc1 | 797
COc1ccc(-c2ccc(N3CCN(C(=O)Cc4cn(C)c5ccccc45)CC3)nn2)cc1 | 656
CCOC(=O)c1cc(S(=O)(=O)N2CCCC2C(=O)Nc2cccc(SC)c2)cn1C (stereo unspecified) | 995
CC(C)OCCCNC(=O)CCCn1c2ccccc2c2cnn(C)c(=O)c21 | 773
Cc1nc(-c2cn(C(C)C)c3ncccc23)sc1C(=O)NCc1ccco1 | 912
O=C(COc1ccccc1)N1CCN(c2nc(CN3CCOCC3)cs2)CC1 | 615
CCCNC(=O)C1CCN(c2ccc(SCC(=O)Nc3cc(C)ccc3C)nn2)CC1 | 656
COCCN1C(=O)CCc2cc(NS(=O)(=O)c3cc(C)c(C)cc3C)ccc21 | 833
Cc1ccccc1NS(=O)(=O)c1cc2c3c(c1)CCC(=O)N3CCC2 | 967
Cc1noc(C)c1CCC(=O)NCCOc1ccc2nnc(-c3cccc(F)c3)n2n1 | 633
Cc1ccc(C(=O)N2CCC(n3cnnc3-c3ccccc3)C2)cn1 (stereo unspecified) | 573
Cc1ccn2cc(C(=O)NCc3cc(F)ccc3F)nc2c1 | 657
Cc1cc(=O)n(CC(=O)Nc2ccc(C)c(C)c2)c(N2CCCC2)n1 | 668
Cc1nc(-c2csc(S(=O)(=O)N3CCCC(C(=O)N4CCCCCC4)C3)c2)no1 (stereo unspecified) | 902
Cc1sc(-c2cc(C(F)(F)F)[nH]n2)cc1S(=O)(=O)NC1CCCCC1 | 1030
Cc1nc(CCNC(=O)[C@H]2CCCN2C(=O)c2ccccc2)cs1 | 622
CCN1C(=O)COc2ccc(-c3nc(NC(=O)c4cccs4)sc3C)cc21 | 990
COCC1CN(S(=O)(=O)c2ccc(C#N)cc2)CC12CCNCC2 (stereo unspecified) | 608
Cc1cc(NC(=O)Cn2c(-c3ccc(F)cc3)ncc(C#N)c2=O)ccc1Br | 1080
COCc1cc(=O)n(CC(=O)Nc2ccc(C)cc2C)c(N)n1 | 584
Cc1ccc(-c2cc(N3CCN(C(=O)c4cc(C)cc(C)c4)CC3)ncn2)cc1 | 731
Cc1cc(=O)n(CC(=O)NCc2ccccc2Br)c(N2CCOCC2)n1 | 660
